Measurements as given in ChEMBL document CHEMBL1153748 (J Med Chem, 2010).

Experiments:
[1] = biological target: T1, Peroxisome proliferator-activated receptor delta (Homo sapiens, UniProt Q03181)
T1 sequence (Q03181 whole entry): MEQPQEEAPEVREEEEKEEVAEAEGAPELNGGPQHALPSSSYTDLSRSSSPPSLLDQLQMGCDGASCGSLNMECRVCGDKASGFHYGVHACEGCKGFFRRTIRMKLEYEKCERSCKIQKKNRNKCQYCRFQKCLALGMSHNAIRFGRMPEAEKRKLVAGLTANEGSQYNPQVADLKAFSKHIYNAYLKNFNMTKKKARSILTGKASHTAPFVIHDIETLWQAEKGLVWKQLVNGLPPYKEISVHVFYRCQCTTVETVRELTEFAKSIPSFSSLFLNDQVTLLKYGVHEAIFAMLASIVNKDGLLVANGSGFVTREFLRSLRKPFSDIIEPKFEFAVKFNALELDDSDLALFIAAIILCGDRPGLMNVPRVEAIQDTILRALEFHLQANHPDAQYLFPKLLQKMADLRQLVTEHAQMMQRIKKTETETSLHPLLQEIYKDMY

[2] = biological target: T2, Peroxisome proliferator-activated receptor alpha (Homo sapiens, UniProt Q07869); assay: Agonist activity at human PPARalpha ligand binding domain expressed in human 293T cells co-transfected with Gal4-DBD by luciferase transactivation assay; assay type: cell-based; conditions: read-out: EC50
T2 sequence (Q07869 whole entry): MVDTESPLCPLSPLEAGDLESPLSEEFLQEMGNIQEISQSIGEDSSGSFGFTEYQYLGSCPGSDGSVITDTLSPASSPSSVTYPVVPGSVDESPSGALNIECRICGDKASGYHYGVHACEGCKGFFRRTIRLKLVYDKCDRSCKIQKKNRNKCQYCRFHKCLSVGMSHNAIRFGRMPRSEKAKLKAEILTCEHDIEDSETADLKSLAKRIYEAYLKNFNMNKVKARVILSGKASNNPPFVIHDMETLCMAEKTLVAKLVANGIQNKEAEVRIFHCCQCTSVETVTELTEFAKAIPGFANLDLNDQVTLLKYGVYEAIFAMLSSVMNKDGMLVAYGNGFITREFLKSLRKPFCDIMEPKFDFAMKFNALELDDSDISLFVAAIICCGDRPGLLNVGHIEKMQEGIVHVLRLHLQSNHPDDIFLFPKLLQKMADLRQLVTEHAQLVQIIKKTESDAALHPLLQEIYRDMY

[3] = biological target: T3, Peroxisome proliferator-activated receptor gamma (Homo sapiens, UniProt P37231); assay type: cell-based, 293T; conditions: read-out: EC50
T3 sequence (P37231 whole entry): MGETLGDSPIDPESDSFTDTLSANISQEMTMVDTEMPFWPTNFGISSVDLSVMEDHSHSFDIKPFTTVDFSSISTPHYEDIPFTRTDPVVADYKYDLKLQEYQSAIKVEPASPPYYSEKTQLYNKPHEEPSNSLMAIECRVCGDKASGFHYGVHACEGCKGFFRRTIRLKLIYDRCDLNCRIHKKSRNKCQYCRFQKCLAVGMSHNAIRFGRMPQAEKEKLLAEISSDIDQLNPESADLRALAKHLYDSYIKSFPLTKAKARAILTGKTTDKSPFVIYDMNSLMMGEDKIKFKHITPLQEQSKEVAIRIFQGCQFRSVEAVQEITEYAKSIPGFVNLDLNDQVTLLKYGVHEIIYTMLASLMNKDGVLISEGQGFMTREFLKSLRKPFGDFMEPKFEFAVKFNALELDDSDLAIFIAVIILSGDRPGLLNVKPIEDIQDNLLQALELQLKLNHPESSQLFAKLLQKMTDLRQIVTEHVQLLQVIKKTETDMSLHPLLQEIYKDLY

EC50 [1] [µM]	EC50 [2] [µM]	EC50 [3] [µM]	Structure (SMILES)
0.12	> 10	> 10	COc1cccc(-c2nc(COc3ccc(OCC(=O)O)c(C)c3)sc2-c2ccc(OC(F)(F)F)cc2)c1
0.035	> 10	> 10	CCCOc1ccc(-c2nc(COc3ccc(OCC(=O)O)c(C)c3)sc2-c2ccc(OC(F)(F)F)cc2)cc1
0.02	> 10	> 10	CCCc1cc(OCc2nc(-c3ccc(OC)cc3)c(-c3ccc(C(F)(F)F)cc3)s2)ccc1OCC(=O)O
2.93	> 10	> 10	COc1ccc(-c2nc(COc3ccc(OCC(=O)O)c4ccccc34)sc2-c2ccc(C(F)(F)F)cc2)cc1
0.14	> 10	> 10	COc1ccc(-c2nc(COc3ccc(CC(=O)O)c(C)c3)sc2-c2ccc(C(F)(F)F)cc2)cc1
		> 10	COc1ccc(-c2nc(COc3ccc(CC(=O)O)cc3Cl)sc2-c2ccc(OC)cc2)cc1
0.023	> 10	> 10	Cc1cc(OCc2nc(-c3ccc(C(=O)N(C)C)cc3)c(-c3ccc(OC(F)(F)F)cc3)s2)ccc1OCC(=O)O
2.62	> 10	> 10	COc1ccc(-c2sc(COc3ccc(OCC(=O)O)c(C)c3)nc2-c2ccccc2)cc1
0.062	> 10	> 10	COc1ccc(-c2nc(CSc3ccc(CC(=O)O)cc3Cl)sc2-c2ccc(C(F)(F)F)cc2)cc1
0.026	> 10	> 10	CCCCOc1ccc(-c2nc(COc3ccc(OCC(=O)O)c(C)c3)sc2-c2ccc(OC(F)(F)F)cc2)cc1
0.93	> 10	> 10	COc1ccc(-c2nc(COc3ccc(OCC(=O)O)cc3)sc2-c2ccc(C(F)(F)F)cc2)cc1
0.25	> 10	> 10	COc1ccc(-c2nc(COc3ccc(OCC(=O)O)c(C)c3)sc2-c2ccc(-c3ccccc3)c(C(F)(F)F)c2)cc1
> 10	> 10	> 10	COc1ccc(-c2nc(COc3cccc(OCC(=O)O)c3)sc2-c2ccc(C(F)(F)F)cc2)cc1
		> 10	COc1ccc(-c2nc(Sc3ccc(CC(=O)O)cc3Cl)sc2-c2ccc(OC)cc2)cc1
0.032	> 10	> 10	CCOc1ccc(-c2nc(COc3ccc(OCC(=O)O)c(C)c3)sc2-c2ccc(OC(F)(F)F)cc2)cc1
0.19	> 10	> 10	COc1ccc(-c2nc(COc3ccc(OCC(=O)O)c(C)c3)sc2-c2ccccc2)cc1
0.775	> 10	> 10	Cc1cc(OCc2nc(-c3ccc(NS(C)(=O)=O)cc3)c(-c3ccc(OC(F)(F)F)cc3)s2)ccc1OCC(=O)O
> 10	> 10	> 10	COc1ccc(-c2nc(COc3ccccc3OCC(=O)O)sc2-c2ccc(C(F)(F)F)cc2)cc1
0.15	> 10	> 10	COc1ccc(-c2nc(COc3ccc(OCC(=O)O)c(C)c3)sc2-c2ccc(SC(F)(F)F)cc2)cc1
0.1	> 10	> 10	COc1ccc(-c2nc(COc3ccc(OCC(=O)O)c(C)c3)sc2-c2ccc(OC)cc2)cc1
0.02	> 10	> 10	COc1ccc(-c2nc(COc3ccc(OCC(=O)O)c(C)c3)sc2-c2ccc(OC(F)(F)F)cc2)cc1
1.2	> 10	> 10	COc1ccc(-c2nc(COc3ccc(OC(C)(C)C(=O)O)cc3)sc2-c2ccc(C(F)(F)F)cc2)cc1
0.063	> 10	> 10	Cc1cc(OCc2nc(-c3ccc(OCC(C)C)cc3)c(-c3ccc(OC(F)(F)F)cc3)s2)ccc1OCC(=O)O
1.3	> 10	> 10	COc1ccc(-c2nc(COc3ccc(CC(=O)O)cc3)sc2-c2ccc(C(F)(F)F)cc2)cc1
		5.87	COc1ccc(-c2nc(SCCOc3ccc(CC(=O)O)cc3Cl)sc2-c2ccc(OC)cc2)cc1
		> 10	COc1ccc(-c2nc(SCc3ccc(CC(=O)O)cc3Cl)sc2-c2ccc(OC)cc2)cc1

The next lines start with the molecule.

Structure (SMILES)	EC50 [1] [µM]	EC50 [2] [µM]	EC50 [3] [µM]
CCN(CC)c1ccc(-c2nc(COc3ccc(OCC(=O)O)c(C)c3)sc2-c2ccc(OC(F)(F)F)cc2)cc1	0.03	> 10	> 10
COc1ccc(-c2nc(COc3ccc(OCC(=O)O)c(C)c3)sc2-c2ccc(Cl)nc2)cc1	0.88	> 10	> 10
COc1ccc(-c2nc(COc3ccc(OCC(=O)O)c(C)c3)sc2-c2cnc3ccccc3c2)cc1	0.08	> 10	> 10
Cc1cc(OCc2nc(-c3ccc4c(c3)OCCCO4)c(-c3ccc(OC(F)(F)F)cc3)s2)ccc1OCC(=O)O	0.013	> 10	> 10
Cc1ccc(-c2sc(COc3ccc(OCC(=O)O)c(C)c3)nc2C)cc1	6.32	> 10	> 10
Cc1cc(OCc2nc(-c3ccc(N4CCOCC4)nc3)c(-c3ccc(OC(F)(F)F)cc3)s2)ccc1OCC(=O)O	0.018	> 10	> 10
Cc1cc(OCc2nc(-c3ccc(-c4ccccc4)cc3)c(-c3ccc(-c4ccccc4)cc3)s2)ccc1OCC(=O)O	0.13	> 10	> 10
Cc1cc(OCc2nc(-c3cccnc3)c(-c3ccc(OC(F)(F)F)cc3)o2)ccc1OCC(=O)O	0.007	> 10	> 10
COc1ccc(-c2nc(COc3ccc(OCC(=O)O)c(C)c3)oc2-c2ccc(OC(F)(F)F)cc2)cc1	0.01	> 10	> 10
COc1ccc(-c2nc(SCCCOc3ccc(CC(=O)O)cc3Cl)sc2-c2ccc(OC)cc2)cc1			4.61
COc1ncc(-c2nc(COc3ccc(OCC(=O)O)c(C)c3)oc2-c2ccc(OC(F)(F)F)cc2)cn1	0.014	> 10	> 10
Cc1cc(OCc2nc(-c3ccc4c(c3)OCCO4)c(-c3ccc(OC(F)(F)F)cc3)s2)ccc1OCC(=O)O	0.017	> 10	> 10
Cc1cc(OCc2nc(-c3ccc4[nH]c(=O)oc4c3)c(-c3ccc(OC(F)(F)F)cc3)s2)ccc1OCC(=O)O	0.544	> 10	> 10
COc1ccc(-c2nc(COc3ccc(OCC(=O)O)c(C)c3)oc2-c2cccc(C(F)(F)F)c2)cc1	0.65	> 10	> 10
COc1ccc(-c2nc(COc3ccc(OCC(=O)O)c(C)c3)sc2-c2ccc3ccccc3c2)cc1	0.02	> 10	> 10
CCCc1c(OCCCSc2ccc(CC(=O)O)cc2Cl)ccc2c(CC)noc12 [L-165461]		1.3	
COc1ccc(-c2nc(SCc3ccc(OCC(=O)O)c(C)c3)sc2-c2ccc(OC)cc2)cc1	5.67	> 10	> 10
COc1ncc(-c2nc(COc3ccc(OCC(=O)O)c(C)c3)sc2-c2ccc(OC(F)(F)F)cc2)cn1	0.034	> 10	> 10
Cc1cc(OCc2nc(-c3ccc(-c4ccccc4)cc3)c(-c3ccc(OC(F)(F)F)cc3)s2)ccc1OCC(=O)O	0.16	> 10	> 10
COc1ccc(-c2nc(SCCCCOc3ccc(CC(=O)O)cc3Cl)sc2-c2ccc(OC)cc2)cc1			2.56
COc1ccc(-c2nc(COc3ccc(OCC(=O)O)c(C)c3)oc2-c2ccc(Cl)c(Cl)c2)cc1	0.07	> 10	> 10
Cc1cc(OCc2cc(-c3ccc(C(F)(F)F)cc3)cc(-c3ccc(C(F)(F)F)cc3)c2)ccc1OCC(=O)O		> 10	> 10
COc1ccc(-c2nc(COc3ccc4c(c3)CC(C(=O)O)O4)sc2-c2ccc(C(F)(F)F)cc2)cc1 (configuration not stated)	0.46	> 10	> 10
